The text below walks through data of ChEMBL document CHEMBL3608274, “Design and synthesis of constrained analogs of LCRF-0004 as potent RON tyrosine kinase inhibitors” (Bioorg Med Chem Lett, 2015).

The target in assay [1] is Hepatocyte growth factor receptor (Homo sapiens, UniProt P08581). Description: Inhibition of human c-Met.
For assay [2], the target named is Macrophage-stimulating protein receptor (Homo sapiens, UniProt Q04912). Put plainly: Inhibition of human RON.

The IC50 is the concentration needed to halve the response being measured. High values mean weaker potency in that assay, low ones greater potency in that assay.

Chain of Macrophage-stimulating protein receptor (Q04912 25-304 limits assumed): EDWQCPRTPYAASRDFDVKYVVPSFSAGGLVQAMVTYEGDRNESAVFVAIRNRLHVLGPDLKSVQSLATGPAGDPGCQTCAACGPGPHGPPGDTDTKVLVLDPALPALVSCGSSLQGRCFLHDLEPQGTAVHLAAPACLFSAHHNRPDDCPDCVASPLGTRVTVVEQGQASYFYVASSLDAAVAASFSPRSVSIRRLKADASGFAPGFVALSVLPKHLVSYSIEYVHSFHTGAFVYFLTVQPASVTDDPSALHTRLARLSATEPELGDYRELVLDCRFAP
Chain of Macrophage-stimulating protein receptor (Q04912 310-1400 limits assumed): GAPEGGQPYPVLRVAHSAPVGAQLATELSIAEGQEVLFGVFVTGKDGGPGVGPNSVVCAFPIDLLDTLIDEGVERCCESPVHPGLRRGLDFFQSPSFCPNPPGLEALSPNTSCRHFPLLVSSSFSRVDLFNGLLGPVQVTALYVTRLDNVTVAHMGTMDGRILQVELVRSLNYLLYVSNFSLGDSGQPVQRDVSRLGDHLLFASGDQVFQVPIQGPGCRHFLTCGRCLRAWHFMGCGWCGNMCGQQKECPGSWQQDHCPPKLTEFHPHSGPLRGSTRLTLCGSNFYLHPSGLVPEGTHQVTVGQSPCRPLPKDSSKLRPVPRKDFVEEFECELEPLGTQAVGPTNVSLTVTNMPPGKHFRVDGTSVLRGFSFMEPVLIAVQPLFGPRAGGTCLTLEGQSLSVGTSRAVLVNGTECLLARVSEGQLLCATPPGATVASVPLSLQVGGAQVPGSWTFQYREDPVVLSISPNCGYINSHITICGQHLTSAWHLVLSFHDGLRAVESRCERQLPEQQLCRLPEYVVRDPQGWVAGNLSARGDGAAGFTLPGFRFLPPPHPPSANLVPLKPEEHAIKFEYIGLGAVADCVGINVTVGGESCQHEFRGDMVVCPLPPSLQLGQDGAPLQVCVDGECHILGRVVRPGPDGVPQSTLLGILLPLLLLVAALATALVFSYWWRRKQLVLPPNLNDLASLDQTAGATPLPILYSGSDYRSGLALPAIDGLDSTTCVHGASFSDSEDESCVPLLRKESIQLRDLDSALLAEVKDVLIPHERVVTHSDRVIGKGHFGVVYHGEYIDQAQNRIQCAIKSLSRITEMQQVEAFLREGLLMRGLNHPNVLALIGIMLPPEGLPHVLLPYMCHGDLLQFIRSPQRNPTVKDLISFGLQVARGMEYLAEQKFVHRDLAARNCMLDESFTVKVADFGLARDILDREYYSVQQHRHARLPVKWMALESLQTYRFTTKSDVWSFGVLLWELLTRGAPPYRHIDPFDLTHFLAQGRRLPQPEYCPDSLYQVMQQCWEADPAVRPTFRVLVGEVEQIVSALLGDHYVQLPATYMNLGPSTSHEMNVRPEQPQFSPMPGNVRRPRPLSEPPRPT
Chain of Hepatocyte growth factor receptor (P08581 whole entry): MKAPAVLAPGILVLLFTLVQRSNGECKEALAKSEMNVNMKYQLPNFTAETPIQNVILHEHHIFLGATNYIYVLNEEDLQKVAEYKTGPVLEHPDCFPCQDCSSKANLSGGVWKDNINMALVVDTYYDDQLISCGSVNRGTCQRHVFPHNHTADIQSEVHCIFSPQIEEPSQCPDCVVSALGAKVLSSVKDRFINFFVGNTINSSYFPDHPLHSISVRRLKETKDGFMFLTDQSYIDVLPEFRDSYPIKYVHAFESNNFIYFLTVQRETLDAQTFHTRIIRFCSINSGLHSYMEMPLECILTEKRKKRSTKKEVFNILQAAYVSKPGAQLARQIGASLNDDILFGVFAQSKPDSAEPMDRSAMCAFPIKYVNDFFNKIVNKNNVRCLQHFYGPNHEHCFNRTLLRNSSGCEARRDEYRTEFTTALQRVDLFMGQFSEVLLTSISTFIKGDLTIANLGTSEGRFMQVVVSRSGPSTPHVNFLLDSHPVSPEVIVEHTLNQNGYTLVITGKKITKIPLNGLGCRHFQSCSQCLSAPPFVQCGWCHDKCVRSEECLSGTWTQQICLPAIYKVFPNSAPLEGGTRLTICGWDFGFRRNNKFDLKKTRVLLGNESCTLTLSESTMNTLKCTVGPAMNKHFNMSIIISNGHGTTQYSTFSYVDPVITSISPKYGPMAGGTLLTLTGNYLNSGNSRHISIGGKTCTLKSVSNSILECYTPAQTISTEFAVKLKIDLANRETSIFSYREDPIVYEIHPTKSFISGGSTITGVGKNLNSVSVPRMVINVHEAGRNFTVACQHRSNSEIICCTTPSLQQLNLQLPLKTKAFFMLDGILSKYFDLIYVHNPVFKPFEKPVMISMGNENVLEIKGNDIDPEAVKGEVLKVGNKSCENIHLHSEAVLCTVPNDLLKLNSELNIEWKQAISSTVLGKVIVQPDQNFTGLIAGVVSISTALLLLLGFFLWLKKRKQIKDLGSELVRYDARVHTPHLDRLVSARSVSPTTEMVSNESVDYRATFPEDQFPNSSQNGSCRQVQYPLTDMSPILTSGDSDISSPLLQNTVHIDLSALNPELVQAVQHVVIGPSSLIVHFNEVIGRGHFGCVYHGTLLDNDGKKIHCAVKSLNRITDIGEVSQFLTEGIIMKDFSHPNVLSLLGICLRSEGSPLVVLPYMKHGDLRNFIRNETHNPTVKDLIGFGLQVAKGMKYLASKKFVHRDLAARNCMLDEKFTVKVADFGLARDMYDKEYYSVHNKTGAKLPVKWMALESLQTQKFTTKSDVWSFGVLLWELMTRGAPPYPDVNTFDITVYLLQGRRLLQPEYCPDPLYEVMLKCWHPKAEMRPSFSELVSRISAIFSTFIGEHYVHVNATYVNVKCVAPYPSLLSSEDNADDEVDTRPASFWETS

Regarding `Cn1cnc(-c2cc3nccc(Oc4ccc(NC(=O)c5cnn(-c6ccccc6)c5C(F)(F)F)cc4F)c3s2)c1`, the IC50 in assay [1] stood at 12 nM; in assay [2], 10 nM.
